According to article PMC7210504 (Biochemistry, 2017):

Legend:
ChuY [1] = target: T1, ChuY (Escherichia coli, UniProt Q8X5N4); conditions: 30 μM NADPH; anaerobic, pH 8.1, 25 °C; substrate inhibition constant (kinetic)
ChuY [2] = target: T1, ChuY; conditions: read-out: steady state parameters^a / Km ^app; 30 μM NADPH; anaerobic, pH 8.1, 25 °C
[3] = target: ChuY from Escherichia coli O157:H7 (anaerobilin reductase) (Escherichia coli O157:H7); assay: AUC
ChuY [4] = target: T1, ChuY; assay: biochemical

## deuteroanaerobilin [DAB]
ChuY [1]
  equilibrium binding^b / Ki ^app: 14000 ± 2000 nM
ChuY [2]
  Km: 1.6 ± 0.3 µM

## ChuY from Escherichia coli O157:H7 (anaerobilin reductase) (enzyme)
[3]
  percent of the c(s) distribution (species consistent with a dimer): 90%
  stoichiometry N: 2

## NC(=O)C1=CN([C@@H]2O[C@H](COP(=O)(O)OP(=O)(O)OC[C@H]3O[C@@H](n4cnc5c(N)ncnc54)[C@H](OP(=O)(O)O)[C@@H]3O)[C@@H](O)[C@H]2O)C=CC1 [NADPH]
ChuY [4]
  Kd: 2700 ± 200 nM
